Results reported in article PMC11413854, “Reversible Control of Native GluN2B-Containing NMDA Receptors with Visible Light” (ACS Chemical Neuroscience, 2024).
Where two headings read alike, the source gives them in different places.

Target: GluN1/GluN2B-ΔNTD receptors (Rattus norvegicus (GluN1); Mus musculus (GluN2B), UniProt P35439+Q01097)
Assay: TEVC on Xenopus oocytes, GluN2B NTD-deleted receptors
Type: cell-based
Conditions: for Relative current (IOpto/I0): GluN1/GluN2B-DeltaNTD
Source text: We finally investigated the location of the OptoNAM-3 binding-site on the receptor. […] The binding site for GluN2B-selective antagonists at the GluN1/GluN2B NTD dimer interface contains two partially overlapping pockets that accommodate GluN2B-selective NAMs of distinct chemical scaffolds:[19] either scaffolds related to ifenprodil or scaffolds related to another GluN2B-selective NAM called EVT-101.[47]
We used cDNA coding for rat GluN1–1a (named GluN1 herein) (GenBank: U08261.1), rat GluN2A (GenBank: D13211.1), mouse GluN2B (GenBank: D10651.2), rat GluA1 flop (GenBank: M36418.2), and rat Myc-GluA2(Q)-flip (GenBank: AF164344.1) cloned into pcDNA3-based expression plasmids. GluK2 (GenBank: Z11548.1) corresponds to the fully RNA-edited version.[80] The GluN2B-ΔNTD construct is from ref[45] and GluN2B–N615K is from ref[81]. Single mutants GluN2B-Q110G and GluN1-L135H were from ref[19]. The GluA2 cDNA contains a Myc tag ([…]) fused between the signal peptide and the N-terminus sequences, and the GluA2 subunit is […] for its Q/R/N site (GluA2(Q)) to allow permeation of homomeric GluA2 receptors.[2] cDNAs coding for rat GluN2C (GenBank: M91563.1) and GluN2D subunits (GenBank: L31611.1) were in prK5 plasmids.
Expression of recombinant NMDA receptors was obtained by oocyte nuclear coinjection of 37 nL of a mixture of cDNAs (at 30 ng/μL) coding for GluN1–1a and various GluN2 subunits (ratio 1:1). The protocol in ref[43] was followed for the expression of GluN1/GluN2A/GluN2B triheteromers. The oocytes were transferred in 96-well plates filled with Barth solution (in mM: 88 NaCl, 1 KCl, 0.33 Ca(NO3)2, 0.41 CaCl2, 0.82 MgSO4, 2.4 NaHCO3, and 7.5 HEPES, pH adjusted to 7.3 with NaOH), supplemented with gentamicin ([…]) and 50 μM APV, a selective NMDA receptor antagonist. Plates were then stored at 18 °C for 24 h for GluN1/GluN2A expression and for 48––72 h for the expression of GluN1/Glu2B, GluN1/GluN2A/GluN2B, and mutants.
TEVC recordings were performed 1–3 days following injection. TEVC recordings were performed using an Oocyte Clamp amplifier OC-725 (Warner Instruments) and computer-controlled via a 1440A Digidata (Molecular Devices). Currents were sampled at 100 Hz and low-pass-filtered at 20 Hz using an 8-pole Bessel filter (900 Series, Frequency Devices Inc.). Data were collected with Clampfit 10.3. During the recording, the cells were continuously perfused with external recording Ringer solution at pH 7.3 (in mM: 100 NaCl, 0.3 BaCl2, 5 HEPES, and 2.5 KCl, pH adjustment to 7.3 by the addition of NaOH). The NMDA currents were induced by simultaneous application of L-glutamate and glycine (agonist solution) at saturating concentration (100 μM each), and DTPA (10 μM) to prevent receptor inhibition by ambient zinc (∼20 nM).[83] A control solution (100 μM glycine and 10 μM DTPA in Ringer pH 7.3) was used for washout of drug and test solutions. AMPA and kainate receptor currents were induced in the same conditions as NMDA currents (100 μM glutamate and glycine + 10 μM DTPA). Oocytes expressing GluK2 kainate receptors were treated with concanavalin A ([…], equivalent to 1.1 mg/mL) during 10 min before recording to decrease receptor desensitization. Unless notified, recordings were performed at a holding potential of −60 mV. All experiments were performed at room temperature.
OptoNAMs were diluted as stock solutions of 50 to 0.5 mM in DMSO. On the day of the experiment, they were diluted to the appropriate concentration in the recording solution and kept in the dark during the whole duration of the experiment to avoid photoconversion.

GluN1/GluN2B-ΔNTD receptors, sequence (Q01097 395-1482, stated change not applied, other chains not shown): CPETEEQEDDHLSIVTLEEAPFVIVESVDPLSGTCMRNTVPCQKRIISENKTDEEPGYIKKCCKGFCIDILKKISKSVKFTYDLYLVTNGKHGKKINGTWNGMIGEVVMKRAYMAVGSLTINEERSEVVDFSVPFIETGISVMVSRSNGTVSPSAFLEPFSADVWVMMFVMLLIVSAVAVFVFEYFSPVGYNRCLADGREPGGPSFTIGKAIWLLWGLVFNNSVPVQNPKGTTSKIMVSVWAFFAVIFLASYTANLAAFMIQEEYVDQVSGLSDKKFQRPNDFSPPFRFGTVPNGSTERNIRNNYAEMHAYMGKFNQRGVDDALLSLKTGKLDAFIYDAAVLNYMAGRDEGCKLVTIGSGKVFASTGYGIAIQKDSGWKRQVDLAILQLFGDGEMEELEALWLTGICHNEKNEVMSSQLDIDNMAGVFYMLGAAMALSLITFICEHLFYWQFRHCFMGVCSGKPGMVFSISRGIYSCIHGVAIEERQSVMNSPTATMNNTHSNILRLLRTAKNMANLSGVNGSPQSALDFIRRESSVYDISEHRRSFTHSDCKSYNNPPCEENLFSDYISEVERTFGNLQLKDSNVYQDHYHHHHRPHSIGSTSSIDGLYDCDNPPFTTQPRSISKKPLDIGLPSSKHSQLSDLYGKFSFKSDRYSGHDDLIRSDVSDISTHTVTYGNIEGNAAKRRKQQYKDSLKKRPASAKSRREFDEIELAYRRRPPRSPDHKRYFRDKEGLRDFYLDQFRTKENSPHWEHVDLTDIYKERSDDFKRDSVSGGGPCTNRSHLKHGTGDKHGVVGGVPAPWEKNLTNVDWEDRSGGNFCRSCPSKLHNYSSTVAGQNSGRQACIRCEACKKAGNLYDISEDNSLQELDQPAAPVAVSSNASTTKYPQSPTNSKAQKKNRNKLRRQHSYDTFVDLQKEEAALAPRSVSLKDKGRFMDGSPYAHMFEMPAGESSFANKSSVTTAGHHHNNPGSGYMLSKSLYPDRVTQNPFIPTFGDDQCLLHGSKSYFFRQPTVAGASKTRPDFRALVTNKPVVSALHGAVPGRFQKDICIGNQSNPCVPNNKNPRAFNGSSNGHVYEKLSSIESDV

## c1ccc(/N=N/c2ccc(CCNc3ccncc3)cc2)cc1 [OptoNAM-3, (E)-N-(4-(Phenyldiazenyl)phenethyl)pyridin-4-amine]
1 µM trans-OptoNAM-3 (dark), calculated from the dose-response curve
  inhibition of GluN1/GluN2B-DeltaNTD: 2.150%
365 nm PSS, read-out: IC50 on GluN1/GluN2B-ΔNTD receptors pre-illuminated with 365 nm
  IC50: 25 ± 6 µM
OptoNAM-3 365 nm PSS, [OptoNAM-3] 0.3 µM
  Relative current (IOpto/I0): 0.952
OptoNAM-3 365 nm PSS, [OptoNAM-3] 2 µM
  Relative current (IOpto/I0): 0.900
OptoNAM-3 365 nm PSS, [OptoNAM-3] 5 µM
  Relative current (IOpto/I0): 0.779
OptoNAM-3 365 nm PSS, [OptoNAM-3] 20 µM
  Relative current (IOpto/I0): 0.661
OptoNAM-3 365 nm PSS, [OptoNAM-3] 30 µM
  Relative current (IOpto/I0): 0.421
OptoNAM-3 365 nm PSS, [OptoNAM-3] 67 µM
  Relative current (IOpto/I0): 0.119
OptoNAM-3 dark PSS (trans), [OptoNAM-3] 0.3 µM
  Relative current (IOpto/I0): 0.969
OptoNAM-3 dark PSS (trans), [OptoNAM-3] 2 µM
  Relative current (IOpto/I0): 0.866
OptoNAM-3 dark PSS (trans), [OptoNAM-3] 5 µM
  Relative current (IOpto/I0): 0.809
OptoNAM-3 dark PSS (trans), [OptoNAM-3] 20 µM
  Relative current (IOpto/I0): 0.542
OptoNAM-3 dark PSS (trans), [OptoNAM-3] 30 µM
  Relative current (IOpto/I0): 0.365
OptoNAM-3 dark PSS (trans), [OptoNAM-3] 67 µM
  Relative current (IOpto/I0): 0.033
dark
  shift in IC50 between wt and GluN1/GluN2B-ΔNTD receptors: 100 fold
dark, read-out: IC50 on GluN1/GluN2B-ΔNTD receptors in the dark
  IC50: 20 ± 4 µM
